Measurements taken from patent US20070049564A1 (Wyeth, priority 2005, published 2007).
≈ marks a conversion by molar mass, not a printed value. Like-named read-outs stand apart in the source and are kept apart here.

Legend:
S. aureus GC 6467 = assay: MIC, broth microdilution; settings: Staphylococcus aureus
E. faecalis GC 4555 = assay: MIC, broth microdilution; settings: Enterococcus faecalis
S. aureus GC 6466 = assay: MIC, broth microdilution; settings: Staphylococcus aureus
E. faecium GC 2243 = assay: MIC, broth microdilution; settings: Enterococcus faecium
E. coli GC 6465 = assay: MIC, broth microdilution; settings: Escherichia coli
E. coli GC 3226 = assay: MIC, broth microdilution; settings: Escherichia coli
E. coli GC 4560 = assay: MIC, broth microdilution; settings: Escherichia coli
Protocol: (§1) Antimicrobial susceptibility testing. The in vitro activities of the antibiotics are determined by the broth microdilution method as recommended by the National Committee for Clinical Laboratory Standards (NCCLS) (1). Mueller-Hinton II broth (MHBII)(BBL Cockeysville, Md.) is the medium employed in the testing procedures. Microtiter plates containing serial dilutions of each antimicrobial agent are inoculated with each organism to yield the appropriate density (10^5 CFU/ml) in a 100 μl final volume. The plates are incubated for 18-22 hours at 35° C. in ambient air.
Representative compounds were first incubated in mouse serum for an hour prior to the in vitro testing against a panel of selected gram-positive and gram-negative bacteria strains. All compounds were also pre-incubated in water for an hour prior to testing as control. Representative compounds of Formula I were incubated in human serum prior to MIC determination.

S. aureus GC 4536 = assay: MIC, broth microdilution; settings: Staphylococcus aureus
S. pneumoniae* GC 4465 = assay: MIC, broth microdilution; settings: Streptococcus pneumoniae
S. typhimurium GC 2172 = assay: MIC, broth microdilution; settings: Salmonella enterica, TYPHIMURIUM
E. coli GC 2231 = assay: MIC, broth microdilution; settings: Escherichia coli
Protocol: as §1
Representative compounds were first incubated in mouse serum for an hour prior to the in vitro testing against a panel of selected gram-positive and gram-negative bacteria strains. All compounds were also pre-incubated in water for an hour prior to testing as control.

E. coli GC 2232 = assay: MIC, broth microdilution; settings: Escherichia coli
E. faecalis GC 2267 = assay: MIC, broth microdilution; settings: Enterococcus faecalis
E. coli GC 2203 = assay: MIC, broth microdilution; settings: Escherichia coli
S. aureus GC 6469 = assay: MIC, broth microdilution; settings: Staphylococcus aureus
S. agalactiae GC 4564 = assay: MIC, broth microdilution; settings: Streptococcus agalactiae
E. coli = assay: Range of MIC for E. coli strains; settings: Escherichia coli
E. faecalis GC 2265 = assay: MIC, broth microdilution; settings: Enterococcus faecalis
E. coli GC 2272 = assay: MIC, broth microdilution; settings: Escherichia coli
Staph. = assay: Range of MIC for Staph. strains, including MRSA; settings: Staphylococcus aureus, MRSA, read-out: Range of MIC, Staph (Mouse Serum)

In the case of `CCCN(CC(=O)Nc1cc(N(C)C)c2c(c1O)C(=O)C1=C(O)[C@]3(O)C(=O)C(C(N)=O)=C(O)C(N(C)C)C3CC1C2)C(=O)OCc1oc(=O)oc1-c1ccccc1` (stereo in doubt) [Example 110, (2-oxo-5-phenyl-1,3-dioxol-4-yl)methyl 2-{[(7R,10aS)-9-(aminocarbonyl)-4,7-bis(dimethylamino)-1,8,10a,11-tetrahydroxy-10,12-dioxo-5,5a,6,6a,7,10,10a,12-octahydrotetracen-2-yl]amino}-2-oxoethyl(propyl)carbamate], the MIC (S. aureus GC 6467; GC6467, pre-incubation in mouse serum) is reported as 32 µg/mL (≈ 40.5 µM), the MIC (S. aureus GC 6467; GC6467, pre-incubation in water) is reported as > 64 µg/mL and the MIC (E. faecalis GC 4555; GC4555, pre-incubation in mouse serum) is reported as 1 µg/mL (≈ 1.27 µM). The MIC (E. faecalis GC 4555; GC4555, pre-incubation in water) was 2 µg/mL (≈ 2.53 µM), the MIC (S. aureus GC 6466; GC6466, pre-incubation in mouse serum) was 1 µg/mL (≈ 1.27 µM) and the MIC (S. aureus GC 6466; GC6466, pre-incubation in water) was 2 µg/mL (≈ 2.53 µM). For the same molecule, the MIC (E. faecium GC 2243; GC2243, pre-incubation in mouse serum) was 0.5 µg/mL (≈ 0.633 µM), the MIC (E. faecium GC 2243; GC2243, pre-incubation in water) was 0.5 µg/mL (≈ 0.633 µM) and the MIC (E. coli GC 6465; GC6465, pre-incubation in mouse serum) was 64 µg/mL (≈ 81 µM). For the same molecule, the MIC (E. coli GC 6465; GC6465, pre-incubation in water) was > 64 µg/mL, the MIC (E. coli GC 3226; GC3226, pre-incubation in mouse serum) was 2 µg/mL (≈ 2.53 µM) and the MIC (E. coli GC 3226; GC3226, pre-incubation in water) was 4 µg/mL (≈ 5.06 µM). It also gave an MIC (E. coli GC 4560; GC4560, pre-incubation in mouse serum) of 0.25 µg/mL (≈ 0.317 µM), an MIC (E. coli GC 4560; GC4560, pre-incubation in water) of 0.5 µg/mL (≈ 0.633 µM) and an MIC (S. aureus GC 4536; GC4536, pre-incubation in mouse serum) of 4 µg/mL (≈ 5.06 µM). The MIC (S. aureus GC 4536; GC4536, pre-incubation in water) was 4 µg/mL (≈ 5.06 µM), the MIC (S. pneumoniae* GC 4465; pre-incubation in mouse serum) was 0.25 µg/mL (≈ 0.317 µM) and the MIC (S. pneumoniae* GC 4465; pre-incubation in water) was 0.12 µg/mL (≈ 0.152 µM). The MIC (S. typhimurium GC 2172; pre-incubation in mouse serum) was 64 µg/mL (≈ 81 µM), the MIC (S. typhimurium GC 2172; pre-incubation in water) was > 64 µg/mL and the MIC (E. coli GC 2231; GC2231, pre-incubation in mouse serum) was 4 µg/mL (≈ 5.06 µM). The MIC (E. coli GC 2231; GC2231, pre-incubation in water) was 8 µg/mL (≈ 10.1 µM), the MIC (E. coli GC 2232; GC2232, pre-incubation in mouse serum) was 1 µg/mL (≈ 1.27 µM) and the MIC (E. coli GC 2232; GC2232, pre-incubation in water) was 2 µg/mL (≈ 2.53 µM). For the same molecule, the MIC (E. faecalis GC 2267; GC2267, pre-incubation in mouse serum) was 8 µg/mL (≈ 10.1 µM), the MIC (E. faecalis GC 2267; GC2267, pre-incubation in water) was 4 µg/mL (≈ 5.06 µM) and the MIC (E. coli GC 2203; GC2203, pre-incubation in mouse serum) was 1 µg/mL (≈ 1.27 µM). For the same molecule, the MIC (E. coli GC 2203; GC2203, pre-incubation in water) was 4 µg/mL (≈ 5.06 µM), the MIC (S. aureus GC 6469; GC6469, pre-incubation in mouse serum) was 32 µg/mL (≈ 40.5 µM) and the MIC (S. aureus GC 6469; GC6469, pre-incubation in water) was 32 µg/mL (≈ 40.5 µM). It also gave an MIC (S. agalactiae GC 4564; GC4564, pre-incubation in mouse serum) of 0.25 µg/mL (≈ 0.317 µM), an MIC (S. agalactiae GC 4564; GC4564, pre-incubation in water) of 0.25 µg/mL (≈ 0.317 µM) and an MIC (E. coli; 20 h, read-out: Range of MIC, E. coli (Mouse Serum)) of 0.5 to 4 µg/mL (≈ 0.633 to 5.06 µM). For the same molecule, the MIC (E. coli; read-out: Range of MIC, E. coli (Water)) was 1 to 8 µg/mL (≈ 1.27 to 10.1 µM), the MIC (E. faecalis GC 2265; GC2265, pre-incubation in mouse serum) was 8 µg/mL (≈ 10.1 µM) and the MIC (E. faecalis GC 2265; GC2265, pre-incubation in water) was 4 µg/mL (≈ 5.06 µM). The MIC (E. coli GC 2272; GC2272, pre-incubation in mouse serum) was 1 µg/mL (≈ 1.27 µM), the MIC (E. coli GC 2272; GC2272, pre-incubation in water) was 1 µg/mL (≈ 1.27 µM) and the MIC (Staph.) was 1 to 32 µg/mL (≈ 1.27 to 40.5 µM).
